The structures appear in SMILES notation. “And” between values parts separate entries of the source, which are not always exact repeats. Identical values can stand only once.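 Grown in 96-well plates, cells were treated for 48 hours with each compound at five concentrations. Insufficient inhibition: endpoint recorded as highest concentration tested. GI50: concentration for 50% inhibition of growth. TGI denotes the concentration required for complete inhibition of growth.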 A value given as a limit tells only on which side of the number the result lay.

Among the data in PubChem BioAssay (NCI) are TGI and GI50 values, retold here.

Some test systems named below: HCT-15 colon; SK-MEL-2 melanoma; MOLT-4 leukemia; CCRF-CEM leukemia; ACHN renal; OVCAR-4 ovarian; DLD-1 colon; SF-295 CNS; RXF 393 renal; SK-MEL-5 melanoma.
Holding throughout (assay): NCI-60 cell line screen, 48 h

For `CN(C)CC1CCCC/C1=N/OC(=O)c1ccc(Cl)cc1` (configuration not stated), the TGI in the assay on HCT-15 colon, in the assay on SK-MEL-2 melanoma, in the assay with MOLT-4 leukemia, in the assay with CCRF-CEM leukemia, with ACHN renal and with OVCAR-4 ovarian was more than 100 µM each time. Moreover, the TGI in the assay with DLD-1 colon, with SF-295 CNS and in the assay on RXF 393 renal was more than 100 µM each time.
Regarding `N#CC(C(=O)C(=O)C(C#N)c1ccc(Br)cc1)c1ccc(Br)cc1` (configuration not stated), the TGI in the assay on HCT-15 colon was 26.1 µM; in the assay on SK-MEL-2 melanoma it was 27.5 µM; with MOLT-4 leukemia, 47.1 µM; with CCRF-CEM leukemia, more than 100 µM; in the assay with ACHN renal, 25.1 µM; in the assay on OVCAR-4 ovarian it was 24.9 µM. Also, the TGI with SK-MEL-5 melanoma was 27.5 µM; with DLD-1 colon it was 34.5 µM; with SF-295 CNS it was 26.6 µM; with RXF 393 renal, 9.01 µM.
Consider `C1CN2CCN3CCN4CCN1[P+]243`, for which the TGI with HCT-15 colon, in the assay on SK-MEL-2 melanoma, with MOLT-4 leukemia, with CCRF-CEM leukemia, in the assay on ACHN renal and in the assay on OVCAR-4 ovarian was more than 100 µM in each case. The TGI in the assay with SK-MEL-5 melanoma, with DLD-1 colon, in the assay on SF-295 CNS and in the assay with RXF 393 renal was more than 100 µM each time.
Turning to `Cc1[nH]c2ccccc2c1C(=O)/C=C/c1ccccc1O`, the TGI with SK-MEL-2 melanoma, in the assay on MOLT-4 leukemia, in the assay on CCRF-CEM leukemia, in the assay with ACHN renal, with OVCAR-4 ovarian and in the assay on SK-MEL-5 melanoma was more than 100 µM each time. The TGI in the assay with DLD-1 colon, with SF-295 CNS and in the assay with RXF 393 renal was more than 100 µM each time.
Regarding `Cc1cc(Cl)ccc1NC(=O)C(=O)Cc1nc2ccccc2o1`, the TGI in the assay on HCT-15 colon, in the assay with SK-MEL-2 melanoma, in the assay on MOLT-4 leukemia, in the assay on CCRF-CEM leukemia, in the assay with ACHN renal and in the assay on OVCAR-4 ovarian was more than 100 µM in each case. Besides, the TGI in the assay on SK-MEL-5 melanoma, in the assay on DLD-1 colon, in the assay with SF-295 CNS and with RXF 393 renal was more than 100 µM in each case.
As to `N#C/C1=C(\N)CCSSSC1`, the TGI in the assay with HCT-15 colon is 98.2 µM; with SK-MEL-2 melanoma it was 90.5 µM; in the assay on MOLT-4 leukemia, more than 100 µM; in the assay on CCRF-CEM leukemia, more than 100 µM; with ACHN renal it was more than 100 µM; in the assay on OVCAR-4 ovarian, more than 100 µM. Also, the TGI in the assay on SK-MEL-5 melanoma is 60.9 µM; with DLD-1 colon it was more than 100 µM; with SF-295 CNS, 50.8 µM; in the assay with RXF 393 renal it was more than 100 µM.
Regarding `O=C1/C(=C/c2ccc(Cl)cc2)CCC1CCN1CCOCC1` (configuration not stated), the TGI is more than 100 µM with HCT-15 colon; more than 100 µM in the assay with SK-MEL-2 melanoma; 82.6 µM with MOLT-4 leukemia; more than 100 µM in the assay with CCRF-CEM leukemia; more than 100 µM with ACHN renal; more than 100 µM with OVCAR-4 ovarian. Moreover, the TGI in the assay with SK-MEL-5 melanoma, with DLD-1 colon, in the assay on SF-295 CNS and in the assay with RXF 393 renal was more than 100 µM throughout.
On to `CC12CP(=O)(c3ccccc3)CC1C2(Cl)Cl` (configuration not stated), for which the TGI in the assay with MOLT-4 leukemia, in the assay with CCRF-CEM leukemia, in the assay with OVCAR-4 ovarian, in the assay with SK-MEL-5 melanoma, in the assay on DLD-1 colon and with SF-295 CNS was more than 100 µM each time. Further, the TGI with RXF 393 renal is more than 100 µM.
`CCOc1ccc(NC(=O)CC#N)cc1`: the TGI in the assay with SK-MEL-2 melanoma, with MOLT-4 leukemia, in the assay on CCRF-CEM leukemia, with ACHN renal, in the assay with OVCAR-4 ovarian and with SK-MEL-5 melanoma was more than 100 µM throughout. Also, the TGI in the assay on DLD-1 colon, with SF-295 CNS and with RXF 393 renal was more than 100 µM throughout.
Take `COc1cc2c(c(OC)c1OC)-c1ccc(SC)c(=O)cc1C(NC=O)CC2` (configuration not stated): the TGI was more than 37.4 µM with HCT-15 colon; more than 94.7 µM in the assay on SK-MEL-2 melanoma; 48.9 µM in the assay on MOLT-4 leukemia; more than 74.8 µM with CCRF-CEM leukemia; more than 100 µM with ACHN renal; more than 100 µM in the assay with OVCAR-4 ovarian. Besides, the TGI with SK-MEL-5 melanoma is less than 0.01 µM; in the assay on DLD-1 colon, more than 100 µM; in the assay with SF-295 CNS, 0.123 µM; with RXF 393 renal, more than 67.9 µM.
In the case of `CC(=O)Oc1c2c(c(O)c3ccccc13)C(n1cnc3c(ncn3C3OC(CO)C4OC(C)(C)OC43)c1=N)CCC2` (configuration not stated), the TGI in the assay with HCT-15 colon was 29.3 µM; in the assay with SK-MEL-2 melanoma, 29.4 µM; in the assay with MOLT-4 leukemia it was 35.9 µM; in the assay on CCRF-CEM leukemia, 25.3 µM; in the assay on ACHN renal, 30.9 µM; in the assay with SK-MEL-5 melanoma, 24.5 µM. Besides, the TGI with DLD-1 colon was found to be 27.4 µM; in the assay with SF-295 CNS it was 27 µM; in the assay with RXF 393 renal it was 32.3 µM.
Consider `CN1CCOC(c2ccccc2)O1` (configuration not stated), for which the TGI with HCT-15 colon, in the assay on SK-MEL-2 melanoma, in the assay with MOLT-4 leukemia, with CCRF-CEM leukemia, with ACHN renal and with OVCAR-4 ovarian was more than 100 µM in each case. Besides, the TGI in the assay on SK-MEL-5 melanoma, with DLD-1 colon, with SF-295 CNS and with RXF 393 renal was more than 100 µM throughout.
On to `COc1cccc(C2=NC(C(C)C)CO2)c1` (configuration not stated), for which the TGI in the assay on HCT-15 colon, in the assay with SK-MEL-2 melanoma, in the assay on MOLT-4 leukemia, in the assay with CCRF-CEM leukemia, in the assay with ACHN renal and with OVCAR-4 ovarian was more than 100 µM throughout. For the same molecule, the TGI in the assay on SK-MEL-5 melanoma, in the assay with DLD-1 colon, in the assay on SF-295 CNS and with RXF 393 renal was more than 100 µM throughout.
In the case of `O=C(/C=C/c1cccc2ccccc12)c1ccccc1Cl`, the TGI in the assay on HCT-15 colon was 24.3 µM; with SK-MEL-2 melanoma, 34.7 µM; in the assay with MOLT-4 leukemia, 8.82 µM; with CCRF-CEM leukemia it was 17.2 µM; with ACHN renal it was 31.3 µM; with OVCAR-4 ovarian it was 28.5 µM. In addition, the TGI with SK-MEL-5 melanoma came to 30.8 µM; in the assay with DLD-1 colon it was 24 µM; with RXF 393 renal, 32.4 µM.
`CCOc1ccccc1NC(=O)C(=O)CC(=O)c1sc(Nc2nnc(-c3ccc(Cl)c(Cl)c3)o2)nc1C`: the TGI with HCT-15 colon, in the assay with SK-MEL-2 melanoma, with MOLT-4 leukemia, in the assay with CCRF-CEM leukemia, in the assay on ACHN renal and with OVCAR-4 ovarian was more than 100 µM each time. In addition, the TGI in the assay on SK-MEL-5 melanoma, in the assay on DLD-1 colon, with SF-295 CNS and in the assay on RXF 393 renal was more than 100 µM in each case.
As to `CCC(C)COC(=O)c1ccc(N=Cc2ccc(C=Nc3ccc(C(=O)OCC(C)CC)cc3)cc2)cc1` (configuration not stated), the TGI in the assay with HCT-15 colon, in the assay with SK-MEL-2 melanoma, with MOLT-4 leukemia, with CCRF-CEM leukemia, in the assay on ACHN renal and in the assay with OVCAR-4 ovarian was more than 100 µM throughout. Further, the TGI in the assay on SK-MEL-5 melanoma, with DLD-1 colon, with SF-295 CNS and in the assay on RXF 393 renal was more than 100 µM in each case.
For `CC1c2c(Cl)nc3ccccc3c2Oc2c1c(Cl)nc1ccccc21`, the TGI in the assay with SK-MEL-2 melanoma, with MOLT-4 leukemia, with CCRF-CEM leukemia, with ACHN renal, with SK-MEL-5 melanoma and with DLD-1 colon was more than 100 µM each time. In addition, the TGI in the assay with SF-295 CNS and in the assay with RXF 393 renal was more than 100 µM each time.
As to `Cc1ccc(/C=C/C(=O)c2sc(-c3nc(C)c(C(=O)/C=C/c4ccc(C)cc4)s3)nc2C)cc1`, the TGI in the assay on HCT-15 colon, in the assay with SK-MEL-2 melanoma, in the assay on MOLT-4 leukemia, in the assay on CCRF-CEM leukemia, in the assay with ACHN renal and in the assay with SK-MEL-5 melanoma was more than 100 µM each time. Moreover, the TGI in the assay with DLD-1 colon, in the assay with SF-295 CNS and in the assay with RXF 393 renal was more than 100 µM each time.
As for `COc1cc(NCc2ccc3nc(N)nc(N)c3c2C)cc(OC)c1OC` (tested in a mixture with another compound), the GI50 with HCT-15 colon was 0.000451 µM; in the assay on SK-MEL-2 melanoma it was 0.339 µM; with ACHN renal, 0.0736 µM and 0.025 µM; in the assay with OVCAR-4 ovarian, 0.15 µM; in the assay with SF-295 CNS, 0.000372 µM. Further, the TGI in the assay with HCT-15 colon is 51.7 µM; in the assay with SK-MEL-2 melanoma it was 42.3 µM and 55.1 µM; with MOLT-4 leukemia, 46.7 µM; in the assay on CCRF-CEM leukemia it was 86 µM; in the assay with ACHN renal, 32.8 µM; with OVCAR-4 ovarian, 99.8 µM. The results for the TGI with DLD-1 colon and in the assay on RXF 393 renal were 95.6 µM and 27.5 µM, respectively.
